The source of these data is patent US20170202780A1, “PHARMACEUTICAL COMPOSITION” (SENTAN Pharma Inc., priority 2014, published 2017).

Series [1] relates to model mouse of myocardial ischemia-reperfusion. Put plainly: Infarct size (area of infarct region/area of AAR) after myocardial ischemia-reperfusion. Type of series: in vivo. Conditions: iv. The method, then:
(§1) Mice (C57BL/6J, 8 to 10 weeks of age, male, 25 to 30 g, n=3) were intraperitoneally administered with pentobarbital sodium (60 mg/kg) or subjected to inhalation anesthesia with isoflurane. During the procedure, respiration was controlled by a mechanical ventilator (tidal volume: 0.5 ml, respiratory rate: 140 breaths/min); the mouse was kept warm using a heating pad so that the rectal temperature was maintained at 36.8° C. to 37.2° C. An incision was made horizontally at the level of the third to fourth intercostal space; and the pericardium was opened. […] ST change in electrocardiogram and a change in the color of cardiac muscles were observed and ischemia in the cardiac muscles was checked. […]
Twenty-four hours after the reperfusion, the mouse was anesthetized again and endotracheal intubation was conducted, followed by thoracotomy. […] In evaluation of the specimen, SMZ1500 (manufactured by Nikon Corporation) was employed as an optical and fluorescence microscope. […]
Each of the sections was stained in the same manner as described above; and the areas of infarct (region shown in white) and AAR (region shown in red) were each measured and the area of the infarct region/the area of AAR was calculated. […]
Each of the sections was stained in the same manner as described above; and the areas of infarct and AAR were each measured and the area of the infarct region/the area of AAR was calculated. […]

Series [2] in a line: Maximum soluble amount of bulk drug for intravenous dosing. Type of series: physicochemical. Conditions: expressed as dose.
In series [3] the test system is model mouse of myocardial ischemia-reperfusion. Nature of the series: Selective drug delivery to ischemia reperfusion sites, fluorescence of heart specimens. It counts as in vivo. Conditions: stereo microscope, heart specimen 24 h after reperfusion; iv at reperfusion, FITC 40 mg/kg or FITC-NP 800 mg/kg. The method, then:
as §1, with “checked. The silicone tube was removed 30 minutes after the ligature. Reperfusion was carried out and at the same time 0.1 to 0.2 ml of solution of test substance was intravenously injected. The chest was closed using 5-0 silk suture; and then extubation was performed after spontaneous breathing was confirmed. The intravenously-injected test substance is FITC (40 mg/kg) or FITC-NP (800 mg/kg).” for “checked.”
Twenty-four hours after the reperfusion, the mouse was anesthetized again and endotracheal intubation was conducted, followed by thoracotomy. […] In evaluation of the specimen, SMZ1500 (manufactured by Nikon Corporation) was employed as an optical and fluorescence microscope.

Structures are written as SMILES.

`CCCCC1=NC2(CCCC2)C(=O)N1Cc1ccc(-c2ccccc2-c2nnn[nH]2)cc1` [irbesartan]: the “reduction of the infarct size” value in series [1] (irbesartan dosed at 3.0 mg/kg) was “drastic reduction of the infarct size was not seen”. The maximum soluble amount in series [2] is 3.0 mg/kg.

For `O=C1OC2(c3ccc(O)cc3Oc3cc(O)ccc32)c2ccc(N=C=S)cc21` [FITC], the “fluorescence of FITC in the infarction site” value in series [3] is recorded as “not observed”.

For the compound `CCc1ccc(CCOc2ccc(CC3SC(=O)NC3=O)cc2)nc1` (stereo not shown) [pioglitazone], the maximum soluble amount in series [2] turned out to be 3.0 mg/kg.

The compound `CSc1ccc(C(=O)N[C@H]2CCCC[C@H]2NC(=O)CNC(=O)c2cc(C(F)(F)F)ccc2NC(=O)NC(C)C)cc1` (relative stereo) [BMS CCR2 22, 2-[(Isopropylaminocarbonyl)amino]-N-[2-[[cis-2-[[4-(methylthio)benzoyl]amino]cyclohexyl]amino]-2-oxoethyl]-5-(trifluoromethyl)benzamide] returned a maximum soluble amount in series [2] of 1.0 mg/kg.

Turning to `O=C(O)C[C@H](O)C[C@H](O)/C=C/c1c(C2CC2)nc2ccccc2c1-c1ccc(F)cc1` [pitavastatin], the “reduction of the infarct size” value in series [1] (pitavastatin dosed at 10 mg/kg) was “drastic reduction of the infarct size was not seen”. In addition, the maximum soluble amount in series [2] is listed as 10 mg/kg.
